Experimental data taken from patent US20050096360A1, “Inhibitors of semicarbazide-sensitive amine oxidase (SSAO) and VAP-1 mediated adhesion useful for treatment of diseases” (priority 2003, published 2005).
Counter-ions that a name gives are not always drawn.

Key:
[1] = system: relapsing EAE in SJL/J mice; assay: Chronic relapsing EAE (model of chronic multiple sclerosis); format: in vivo; conditions: 10 mg/kg i.p. bid for 53 days
Method: An analysis of the use of VAP-1/SSAO inhibitors to treat inflammatory diseases of the CNS is performed through the use of a relapsing experimental autoimmune encephalomyelitis model (EAE) in SJL/J mice.
To examine the role of VAP-1 as a major regulator of lymphocyte recruitment to the CNS, VAP-1/SSAO inhibitor was evaluated in a chronic relapsing EAE model.
Then animals were monitored for signs of paralysis according to a 0-5 scale of scoring system as follows: • 0.5 partial tail weakness • 1 limp tail or waddling gait with tail tonicity; • 1.5 waddling gait with partial tail weakness • 2 waddling gait with limp tail (ataxia); • 2.5 ataxia with partial limb paralysis; • 3 full paralysis of one limb; • 3.5 full paralysis of one limb with partial paralysis of second limb; • 4 full paralysis of two limbs; • 4.5 moribund; • 5 death.
The results are expressed as mean clinical score (FIG. 9A), % incidence (number of mice with any paralysis/10 mice) (FIG. 9B), % mice with chronic disease (mice with at least one relapse) (FIG. 9C), and cumulative total number of relapses (FIG. 9D).

EAE in C57BL/6 mice = assay: Experimental autoimmune encephalomyelitis (EAE), MOG 35-55; format: in vivo; conditions: separate experiment, same protocol, FIG. 3
Method: SSAO/VAP-1 is expressed on the endothelium of inflamed tissues/organs including brain and spinal cord. Its ability to support lymphocyte transendothelial migration may be an important systemic function of SSAO/VAP-1 in inflammatory diseases such as multiple sclerosis and Alzheimer's disease. An analysis of the use of SSAO inhibitors to treat inflammatory disease of the central nervous system (CNS) was performed through the use of an experimental autoimmune encephalomyelitis model (EAE) in C57BL/6 mice. EAE in rodents is a well-characterized and reproducible animal model of multiple sclerosis in human (Benson J. M. et al. (2000) J. Clin. Invest. 106:1031). Multiple sclerosis is a chronic immune-mediated disease of the CNS characterized by pachy perivenular inflammatory infiltrates in areas of demyelination and axonal loss. As an animal model, EAE can be induced in mice by immunization with encephalitogenic myelin antigens in the presence of adjuvant. The pathogenesis of EAE comprises presentation of myelin antigens to T cells, migration of activated T cells to the CNS, and development of inflammation and/or demyelination upon recognition of the same antigens.
Thirty female C57BL/6 mice were immunized subcutaneously (s.c). with myelin oligodendrocyte glycoprotein 35-55 (MOG peptide 35-55) in Complete Freund Adjuvant (CFA) on day 0, followed by i.p. injections of pertussis toxin (one pertussis toxin injection on day 0, a second pertussis toxin injection on day 2). Groups of 10 mice received either the allylamine compound mofegiline (AA, 10 mg/kg/dose, twice daily for 18 consecutive days), methotrexate (2.5 mg/kg/day, every other day (Mon., Weds., Fri.) till day 18) or vehicle control (twice/day for 18 consecutive days) all-starting from one day after the immunization and all administered i.p. Then animals were monitored for body weight, signs of paralysis and death according to a 0-5 scale of scoring system as follows: 1=limp tail or waddling gait with tail tonicity; 2=waddling gait with limp tail (ataxia); 2.5=ataxia with partial limb paralysis; 3=full paralysis of one limb; 3.5=full paralysis of one limb with partial paralysis of second limb; 4=full paralysis of two limbs; 4.5=moribund; 5=death. Results are shown in FIG. 2A, FIG. 2B, and FIG. 2C. […] (p=0.04 by repeated measure analysis to assess the treatment effect. Proper polynomial transformation, with the spacing corresponding to the collection days, was applied to test the time effect). Statistically significant differences in diseases severity between the AA and vehicle-treated groups, continued even after stopping compound administration and were observed until the end of the study (d25) .

[2] = system: oxazolone-induced colitis in SJL/J mice
Method: Oxazolone colitis is induced as described (Fuss I. J. et al. (2002) J. Immunol. 168: 900). Briefly, mice are pre-sensitized by skin epicutaneous application of 3% oxazolone (4-ethoxymethylene-2-phenyl-2oxazolin-5-one, Sigma) in 100% EtOH (150 μl) on day 0, followed by intrarectal administration of 1% oxazolone in 50% EtOH (100 μl) to anesthetized SJL/J male mice on day 5 through a 3.5 F catheter inserted 4 cm proximal to the anal verge. Mice are divided in three treatment groups and injected i.p. twice a day with: PBS and a compound of the invention. Injections are initiated at day 0 and are continued through day 7 or the end of the study.
A study was carried out using the protocol in Example 20 for oxazolone-induced colitis. Injections were initiated at day 0 and were continued through the end of the study. Disease progression was evaluated for 12 days (6 days after intrarectal administration) by monitoring survival rates and body weight, as well as by macroscopic evidence of colitis (i.e. rectal prolapse, colon size, colon weight). (2-phenylallyl)hydrazine was administered at 10 mg/kg, i.p. twice a day, starting on the day of skin pre-sensitization (day 0). […] Kaplan-Meyer survival curves and unpaired t tests were calculated using GraphPad Prism software (San Diego, Calif.).
Thus, animals from a similar study were sacrificed seven days after initial sensitization and their colons removed and fixed in […]. Tissue processing and analysis were performed blindly at a contract laboratory (Pathology Associates, Frederick, Md.). Briefly, after paraffin embedding 5 μm sections were cut and stained with hematoxylin and eosin. Three cross sections were taken from each animal at 1 cm (section 1), 3 cm (section 2), and 6 cm (section 3) from the anus. The degrees of ulceration, inflammation (in mucosa, submucosa, serosa, and outer muscular layers) and epithelial injury (including mucosal and submucosal abscess, submucosal fibrosis, glandular distortion and mucosal and submucosal edema/hemorrhage), were graded semiquantitatively as 0—absent; 1—minimal; 2—mild; 3—moderate; 4—marked. […] Kaplan-Meyer survival curves were calculated using GraphPad Prism software (San Diego, Calif.).

[3] = system: LPS-induced endotoxemia in C57B1/6J female mice; assay: LPS-induced endotoxemia and LPS/D-galactosamine shock; format: in vivo; conditions: for survival, first 14 hours: LPS 2 mg/kg + D-galactosamine 300 mg/kg i.p., PBS 40%
Method: Eight female mice per group received i.p. injections of 5 mg/kg LPS. […] Dexamethasone (3 mg/kg) was administered i.p. at the same time. Blood was collected 1, 2, 4, and 8 hours after LPS injection and circulating TNF-α and IL-6 levels were measured by ELISA (R&D Systems). Asterisk * indicates p<0.01.
Survival data for the first 14 hours is presented.
In sepsis exposure of endothelial cells of all organs to elevated levels of LPS and inflammatory cytokines leads to upregulation of adhesion molecules and chemokines, which results in an increase in the tethering, rolling and transmigration of leukocytes (Pawlinski R. et al. (2004) Blood 103:1342). LPS-induced endotoxemia is a well-characterized model of systemic inflammation and thus can be used to investigate the putative role of SSAO inhibition in these inflammatory mechanisms. Sepsis was induced in C57B1/6J female mice by i.p. administration of 5 mg/kg of LPS. […] Dexamethasone was administered i.p, at a concentration of 3 mg/kg 1 hr prior to disease induction. Blood was drawn from the retroorbital plexus of anesthetized animals and sera was collected and frozen until time of cytokine measurements. IL-1β, TNF-α, and IL-6 concentrations were determined by ELISA using commercial kits (R&D Systems, Minneapolis, Minn.) according to the manufacturer's instructions. […] Data were analyzed with GraphPad Prism software (San Diego, Calif.) by Dunnett's test following analysis of variance. […] 2 mg/kg LPS together with 300 mg/kg D-galactosamine (GalN, Sigma), both dissolved in PBS, were administered to mice by i.p. injection. At the indicated time points animals from the different therapeutic groups received 200 μl of vehicle (PBS) or 30 mg/kg (2-phenylallyl)hydrazine by oral administration.

[4] = 10 mg/kg i.p. twice a day from day 0, vs vehicle
[5] = day 7, 20 mg/kg/day from day 0, section 2
[6] = 50 mg/kg orally 60 min prior to 5 mg/kg LPS i.p.

C=C(CNN)c1ccccc1 [Example 2, Hydrochloride]
cumulative number of relapses ([1]; p<0.0001 vs buffer): statistically significant reduction | incidence of chronic disease (mice with at least one relapse) ([1]; p<0.0001 vs buffer): significant lower | overall clinical severity ([1]; p<0.005 vs buffer): statistically significant reduction | development and severity of disease (EAE in C57BL/6 mice): clearly had a therapeutic effect | body weight loss [2, 4]: significantly improved | survival rates [2, 4]: significantly improved | inflammatory index (histology) [2, 5]: significant effect | ulceration index (histology) [2, 5]: significant effect | levels of circulatory IL-6 [3, 6]: significantly reduced | levels of circulatory TNF-α [3, 6]: significantly reduced | survival, first 14 hours ([3]; 30 mg/kg oral at 0 and 8 hours (2×)): 80% | survival, first 14 hours ([3]; 30 mg/kg oral once (1×)): 60%
